The nature of data set [1]: Water sorption by dynamic vapor sorption. The class given is physicochemical. To be noted: crystalline form; relative humidity of 80%, temperature of 25° C. The method, then:
The crystalline form of the compound of formula (V) may also be characterized according to its water sorption properties. […] In certain embodiments, the crystalline form of the compound of formula (V) has a water sorption isotherm, when measured at 25° C., substantially the same as shown in FIG. 6.

A short description of data set [2]: Thermogravimetric analysis (TGA). The class given is physicochemical. To be noted: crystalline form; heated at 10° C./minute from ~25° C. to about 315° C. The method, then:
Thermogravimetric analysis (TGA) data for the crystalline form of the compound of formula (V) were collected using a TA Discovery 550 TGA instrument. The TGA instrument was calibrated using a nickel reference standard. Samples of the crystalline form of the compound of formula (V) were placed in open platinum sample pans and heated at a rate of 10° C./minute from about ambient temperature (˜ 25° C.) to about 315° C.

Regarding `CC(C)(CCCCCC(O)CCCCCC(C)(C)C(=O)O)C(=O)O` [compound of formula (V), 8-hydroxy-2,2,14,14-tetramethylpentadecanedioic acid], the “change in mass, as determined by dynamic vapor sorption” value in data set [1] is reported as “about 0.03%”. The “weight loss in TGA curve” value in data set [2] is reported as “negligible weight loss prior to decomposition occurring”.

(Values after patent US12398087B2, “Methods of making bempedoic acid and compositions of the same” (Esperion Therapeutics, Inc., priority 2019, dated 2025).)
